According to patent US8063069B2, “Prucalopride-N-oxide” (Janssen Pharmaceutica N.V., priority 2002, dated 2011):
Read-outs that look alike come from different tables or passages of the source.

Columns and labels:
[1] = pharmacokinetics of prucalopride in plasma after single oral administration to beagle dogs; type: in vivo; conditions: for Cmax / Tmax: dog, plasma, po, 2.5 mg/kg; for Cmax: read-out: Cmax peak plasma concentration of prucalopride; for Tmax: read-out: Tmax time to reach the peak plasma concentration of prucalopride
Method: Two male beagle dogs were dosed orally with 1 ml of a test formulation comprising 2.5 mg/kg of 4-amino-5-chloro-2,3-dihydro-N-[1-(3-methoxypropyl)-4-piperidinyl]-7-benzofuran-carboxamide (“prucalopride”).
After a wash-out period of four weeks, the same two dogs were dosed orally with 1 ml of a test formulation comprising 2.61 mg/kg of compound (1).
Blood samples were taken via the jugular vein immediately before dosing (blank sample) and at 0.25 h, 0.5 h, 1 h, 1.5 h, 2 h, 4 h, 6 h, 8 h, and 24 h after dosing. Aliquots of 10 ml were collected in EDTA tubes. Immediately after collection of the blood samples, plasma samples were prepared by centrifugation at approximately 1700×g for approximately 10 minutes.
Concentrations of prucalopride in the plasma samples were determined by LC/MS/MS. The quantification limit for prucalopride was 5.0 ng/ml.
Based on the individual plasma concentration-time data, using the actual sampling times, the following pharmacokinetic parameters were determined for prucalopride after oral administration of prucalopride and compound (1) and summarized in Table 1. • Cmax peak plasma concentration, determined by visual inspection of the data • Tmax time to reach the peak plasma concentration, determined by visual inspection of the data. • AUC0-∞ area under the plasma concentration-time extrapolated to infinity

5-HT2A receptors = 5-HT2A receptors (Homo sapiens, UniProt P28223); conditions: in words; cited from earlier work
Chain of 5-HT2A receptors (P28223 whole entry): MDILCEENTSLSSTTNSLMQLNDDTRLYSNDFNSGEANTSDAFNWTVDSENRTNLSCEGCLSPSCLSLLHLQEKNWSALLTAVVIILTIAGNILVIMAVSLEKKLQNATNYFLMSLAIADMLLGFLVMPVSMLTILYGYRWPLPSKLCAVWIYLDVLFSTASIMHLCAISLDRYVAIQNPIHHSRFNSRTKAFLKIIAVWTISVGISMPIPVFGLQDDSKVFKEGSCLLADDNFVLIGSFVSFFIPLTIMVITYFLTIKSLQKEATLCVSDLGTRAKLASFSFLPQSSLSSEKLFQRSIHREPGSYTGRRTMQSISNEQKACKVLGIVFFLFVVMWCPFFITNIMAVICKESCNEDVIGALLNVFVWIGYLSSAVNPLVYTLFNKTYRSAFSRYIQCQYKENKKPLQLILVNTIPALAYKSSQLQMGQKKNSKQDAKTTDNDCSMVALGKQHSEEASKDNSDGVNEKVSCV

5-HT3A receptors = target: T1, 5-HT3A receptors (Homo sapiens, UniProt P46098); conditions: in words; cited from earlier work
T1 sequence (P46098 24-478): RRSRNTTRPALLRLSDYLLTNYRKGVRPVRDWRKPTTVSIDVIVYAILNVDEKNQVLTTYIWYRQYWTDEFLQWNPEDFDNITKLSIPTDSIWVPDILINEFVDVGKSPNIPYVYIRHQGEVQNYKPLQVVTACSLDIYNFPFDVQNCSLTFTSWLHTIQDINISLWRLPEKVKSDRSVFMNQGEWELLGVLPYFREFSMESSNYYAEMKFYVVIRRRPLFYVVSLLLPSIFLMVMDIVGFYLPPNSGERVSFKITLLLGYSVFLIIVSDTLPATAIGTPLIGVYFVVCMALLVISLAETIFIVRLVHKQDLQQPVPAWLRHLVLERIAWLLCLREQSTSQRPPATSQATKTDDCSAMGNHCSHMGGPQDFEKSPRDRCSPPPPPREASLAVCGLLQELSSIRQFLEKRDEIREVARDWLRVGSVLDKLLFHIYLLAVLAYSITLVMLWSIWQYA

5-HT4 receptors = 5-HT4 receptors (Homo sapiens, UniProt Q13639); conditions: in words; cited from earlier work
Chain of 5-HT4 receptors (Q13639 whole entry): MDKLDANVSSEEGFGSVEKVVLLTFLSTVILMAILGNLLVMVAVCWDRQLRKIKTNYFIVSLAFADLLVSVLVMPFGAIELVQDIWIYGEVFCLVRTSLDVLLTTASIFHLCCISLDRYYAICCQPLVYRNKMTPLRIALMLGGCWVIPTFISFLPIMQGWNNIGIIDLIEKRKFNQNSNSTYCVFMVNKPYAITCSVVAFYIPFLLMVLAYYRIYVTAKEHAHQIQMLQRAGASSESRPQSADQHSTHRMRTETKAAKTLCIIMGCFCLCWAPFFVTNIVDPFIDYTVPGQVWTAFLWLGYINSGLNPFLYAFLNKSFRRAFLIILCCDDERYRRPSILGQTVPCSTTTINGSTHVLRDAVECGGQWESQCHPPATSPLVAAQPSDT

colon = conditions: in words, cited from earlier work
[2] = male, beagle, Dog 1, oral administration of prucalopride 2.5 mg/kg, prucalopride measured in plasma
[3] = male, beagle, Dog 2, oral administration of prucalopride 2.5 mg/kg, prucalopride measured in plasma
[4] = Dog 1, oral administration of compound (1) 2.61 mg/kg, prucalopride measured in plasma
[5] = Dog 2, oral administration of compound (1) 2.61 mg/kg, prucalopride measured in plasma
[6] = oral administration, dogs, in words

Row | Structure (SMILES) | AUC0-∞ area under the plasma concentration-time extrapolated to infinity, prucalopride ([1]; Dog 2, oral administration of prucalopride 2.5 mg/kg, prucalopride measured in plasma) [ng·h/mL] | Cmax [1, 2] [ng/mL] | Tmax [1, 2] [h] | Cmax [1, 3] [ng/mL] | Tmax [1, 3] [h] | AUC(0-inf) ([1]; male, beagle, Dog 1, oral administration of prucalopride 2.5 mg/kg, prucalopride measured in plasma, read-out: AUC0-∞ area under the plasma concentration-time extrapolated to infinity, prucalopride) [ng·h/mL] | affinity for 5-HT2A receptors (5-HT2A receptors) | affinity for 5-HT3A receptors (5-HT3A receptors) | agonism of 5-HT4 receptors (5-HT4 receptors) | colonic motility and defecation (colon; animals) | giant contractions in the colon (colon; propagated over the length of the colon as a peristaltic wave) | AUC0-∞ area under the plasma concentration-time extrapolated to infinity, prucalopride [1, 4] [ng·h/mL] | Cmax peak plasma concentration of prucalopride [1, 4] [ng/mL] | Tmax time to reach the peak plasma concentration of prucalopride [1, 4] [h] | AUC0-∞ area under the plasma concentration-time extrapolated to infinity, prucalopride [1, 5] [ng·h/mL] | Cmax peak plasma concentration of prucalopride [1, 5] [ng/mL] | Tmax time to reach the peak plasma concentration of prucalopride [1, 5] [h] | peak plasma concentration Cmax of prucalopride, compared with oral prucalopride [1, 6] | systemic exposure to prucalopride, compared with oral prucalopride itself [1, 6]
1 | COCCCN1CCC(NC(=O)c2cc(Cl)c(N)c3c2OCC3)CC1 [prucalopride, 4-amino-5-chloro-2,3-dihydro-N-[1-(3-methoxypropyl)-4-piperidinyl]-7-benzofuran-carboxamide] | 4372 | 556 | 1 | 660 | 0.5 | 4230 | no affinity | no affinity | potent and selective agonist | stimulates colonic motility and defecation | induces giant contractions in the colon | – | – | – | – | – | – | – | –
2 | COCCC[N@+]1([O-])CC[C@@H](NC(=O)c2cc(Cl)c(N)c3c2OCC3)CC1.O [compound (1), cis-4-amino-5-chloro-2,3-dihydro-N-[1-(3-methoxypropyl)-4-piperidinyl]-7-benzofurancarboxamide, N-oxide monohydrate] | – | – | – | – | – | – | – | – | – | – | – | 2265 | 222 | 2.0 | 4093 | 488 | 2.0 | lower | substantially lower
